Test results as given in patent publication US8772480B2, “Inhibitors of PI3 kinase and/or mTOR” (priority 2009, dated 2014).

Key:
[1] = tested on: phosphorylation of Akt at Serine 473 in U87 MG cells; assay: cells; settings: Homo sapiens, U-87 MG, 2 h, read-out: U87Cell IC50, pAkt (Ser 473), U87 MG cells, two hours with compound
Experimental: pAkt Aplhascreen (U87 Cell)
This assay was performed using U87 MG cells. […] The cells were maintained weekly using 0.05% Trypsin (Gibco) and replated in 150 mm TC—Treated Culture Dishes (Corning, Corning, N.Y.).
The first day of the assay, the adherent cells were trypsinized, media was added to the loose cells and cells were mixed to a homogenous mixture. 0.5 ml of the homogenous mixture was counted on the Beckman Coulter® Vi-CELL™ XR (Fullerton, Calif.). 50 frames of cells were counted and the number of viable cells was determined. The cells were then diluted to 0.25 million cells per ml, and centrifuged at 200 rcf for 5 minutes. The media was removed and the cells were reconstituted in fresh media for plating. The cells were plated at 20 μl per well on the PerkinElmer® FlexDrop PLUS in Low Volume 384 Well White Tissue Culture Plates (Corning) with a final cell density of 5K cells per well. The plates were incubated overnight at 37° Celsius, 5% CO2.
After two hours, the media in the cell plates was aspirated using the BioTek® ELx405HT plate washer (Winooski, Vt.) removing the majority of media and compound without disturbing the adherent U87 cells. […] The plates were then incubated at room temperature on a shaker for ten minutes. […] The AlphaScreen® reaction was added to the cell lysate at 6 μl per well using the PerkinElmer® FlexDrop PLUS. The plates were placed in a humid environment to reduce edge effects and incubated overnight at room temperature with restricted air flow in the dark.

PI3Kα = PI3Kα (Homo sapiens (Human), UniProt P42336); settings: read-out: PI3Kα AlphaScreen ® Ki
Chain of PI3Kα (P42336 whole entry): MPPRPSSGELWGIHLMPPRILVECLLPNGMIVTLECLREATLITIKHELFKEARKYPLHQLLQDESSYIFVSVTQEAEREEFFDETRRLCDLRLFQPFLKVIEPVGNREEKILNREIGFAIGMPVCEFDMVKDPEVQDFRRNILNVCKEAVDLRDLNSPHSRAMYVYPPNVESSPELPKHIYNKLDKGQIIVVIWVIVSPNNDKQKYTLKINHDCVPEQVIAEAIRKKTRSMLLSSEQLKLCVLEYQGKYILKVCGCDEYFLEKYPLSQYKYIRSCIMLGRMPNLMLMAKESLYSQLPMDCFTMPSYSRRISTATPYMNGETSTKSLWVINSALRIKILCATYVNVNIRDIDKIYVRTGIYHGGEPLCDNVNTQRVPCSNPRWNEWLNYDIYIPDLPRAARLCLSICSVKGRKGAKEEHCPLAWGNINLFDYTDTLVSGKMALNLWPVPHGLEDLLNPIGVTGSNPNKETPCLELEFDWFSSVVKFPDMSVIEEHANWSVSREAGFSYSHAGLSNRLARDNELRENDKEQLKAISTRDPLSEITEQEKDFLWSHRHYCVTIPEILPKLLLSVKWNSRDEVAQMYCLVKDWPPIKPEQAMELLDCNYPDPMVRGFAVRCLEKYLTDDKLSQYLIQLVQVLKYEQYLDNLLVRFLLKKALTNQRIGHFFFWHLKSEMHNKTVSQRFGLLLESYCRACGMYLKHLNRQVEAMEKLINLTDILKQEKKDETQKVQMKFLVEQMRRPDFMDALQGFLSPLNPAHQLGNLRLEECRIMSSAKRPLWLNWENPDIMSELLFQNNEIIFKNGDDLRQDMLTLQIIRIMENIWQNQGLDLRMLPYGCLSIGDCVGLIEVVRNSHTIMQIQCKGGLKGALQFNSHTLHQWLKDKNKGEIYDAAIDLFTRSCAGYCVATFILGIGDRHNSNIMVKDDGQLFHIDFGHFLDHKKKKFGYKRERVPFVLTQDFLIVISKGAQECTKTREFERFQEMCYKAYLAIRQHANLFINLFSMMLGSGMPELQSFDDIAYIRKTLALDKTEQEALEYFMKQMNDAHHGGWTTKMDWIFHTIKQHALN
Chain of PI3Kα (P27986 whole entry partner): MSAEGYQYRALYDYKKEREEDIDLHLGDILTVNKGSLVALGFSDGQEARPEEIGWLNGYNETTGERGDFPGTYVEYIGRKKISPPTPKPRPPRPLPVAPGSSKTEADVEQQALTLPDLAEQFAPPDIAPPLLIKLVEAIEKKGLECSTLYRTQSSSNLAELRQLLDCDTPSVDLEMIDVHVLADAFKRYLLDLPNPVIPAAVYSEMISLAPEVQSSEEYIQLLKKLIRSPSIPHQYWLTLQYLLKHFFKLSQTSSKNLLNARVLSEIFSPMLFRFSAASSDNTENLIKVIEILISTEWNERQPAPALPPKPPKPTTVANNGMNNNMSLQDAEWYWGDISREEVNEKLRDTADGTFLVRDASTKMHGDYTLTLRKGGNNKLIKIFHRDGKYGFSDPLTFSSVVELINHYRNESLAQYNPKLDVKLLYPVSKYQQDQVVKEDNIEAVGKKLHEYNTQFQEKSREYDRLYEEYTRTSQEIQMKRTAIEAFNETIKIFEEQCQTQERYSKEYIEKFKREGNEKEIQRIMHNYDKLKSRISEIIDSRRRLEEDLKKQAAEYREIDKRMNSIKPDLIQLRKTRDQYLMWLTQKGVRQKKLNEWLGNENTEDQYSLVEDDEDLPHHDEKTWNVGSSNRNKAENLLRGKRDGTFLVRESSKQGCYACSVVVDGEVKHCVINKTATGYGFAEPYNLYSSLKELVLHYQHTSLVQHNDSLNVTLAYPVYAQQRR

COc1ncc(Nc2ncc([C@@H](C)N3CCOCC3)cc2-c2nc(C)nc(N)n2)cc1F (single isomer, unassigned) [Example 291]
IC50 [1]: 7 nM | Ki (PI3Kα): 37 nM

COc1ncc(Nc2ncc([C@H](C)N3CCOCC3)cc2-c2nc(C)nc(N)n2)cc1F (single isomer, unassigned) [Example 292]
IC50 [1]: 20 nM | Ki (PI3Kα): 44 nM

Cc1nc(N)nc(-c2cc([C@H](C)N3CCOCC3)cnc2Nc2cnc(Cl)c(NS(C)(=O)=O)c2)n1 (single isomer, unassigned) [Example 372]
IC50 [1]: 4 nM | Ki (PI3Kα): 5 nM

Nc1cc(-c2cccnc2Nc2cccc3[nH]ncc23)nc(C(F)(F)F)n1 [Example 21, N-(3-(6-Amino-2-(Trifluoromethyl)Pyrimidin-4-yl)Pyridin-2-yl)-1H-Indazol-4-Amine]
Ki (PI3Kα): 3140 nM

Cc1nc(N)c(F)c(-c2cccnc2Nc2cccc3[nH]ncc23)n1 [Example 29, N-(3-(6-Amino-5-Fluoro-2-Methylpyrimidin-4-yl)Pyridin-2-yl)-1H-Indazol-4-Amine]
Ki (PI3Kα): 802 nM

COc1ccc(Nc2ncc(CN3CCN(S(C)(=O)=O)CC3)cc2-c2ncnc(C)n2)cn1 [Example 34, N-(6-methoxypyridin-3-yl)-3-(4-methyl-1,3,5-triazin-2-yl)-5-((4-(methylsulfonyl)piperazin-1-yl)methyl)pyridin-2-amine]
IC50 [1]: > 10000 nM | Ki (PI3Kα): 1580 nM

Cc1nc(N)nc(-c2cc(CN3CCN(S(C)(=O)=O)CC3)cnc2Nc2cccc3[nH]ncc23)n1 [Example 36, N-(3-(4-amino-6-methyl-1,3,5-triazin-2-yl)-5-((4-(methylsulfonyl)piperazin-1-yl)methyl)pyridin-2-yl)-1H-indazol-4-amine]
IC50 [1]: 22 nM | Ki (PI3Kα): 4 nM

Cc1nc(N)nc(-c2cc(CN3CCN(S(C)(=O)=O)CC3)cnc2Nc2cncnc2)n1 [Example 38, 4-Methyl-6-(5-((4-(Methylsulfonyl)Piperazin-1-yl)Methyl)-2-(Pyrimidin-5-Ylamino)Pyridin-3-yl)-1,3,5-Triazin-2-Amine]
IC50 [1]: 145 nM | Ki (PI3Kα): 17 nM

Cc1nc(N)nc(-c2cc(CN3CCN(S(C)(=O)=O)CC3)cnc2Nc2ccc3ncoc3c2)n1 [Example 39, N-(3-(4-Amino-6-Methyl-1,3,5-Triazin-2-yl)-5-((4-(Methylsulfonyl)Piperazin-1-yl)Methyl)Pyridin-2-yl)Benzo[D]Oxazol-6-Amine]
IC50 [1]: 46 nM | Ki (PI3Kα): 55 nM

Cc1nc(N)nc(-c2cccnc2Nc2ccc(Cl)nc2)n1 [Example 54, 4-(2-(6-Chloropyridin-3-Ylamino)Pyridin-3-yl)-6-Methyl-1,3,5-Triazin-2-Amine]
IC50 [1]: 674 nM | Ki (PI3Kα): 160 nM

COc1ccc(Nc2ncc(CNc3cccnn3)cc2-c2nc(C)nc3[nH]cnc23)cn1 [Example 80, N-((6-(6-methoxypyridin-3-ylamino)-5-(2-methyl-9H-purin-6-yl)pyridin-3-yl)methyl)pyridazin-3-amine]
IC50 [1]: 305 nM | Ki (PI3Kα): 33 nM

COc1ccc(Nc2nccnc2-c2nc(C)nc(N)n2)cn1 [Example 114, 4-(3-(6-methoxypyridin-3-ylamino)pyrazin-2-yl)-6-methyl-1,3,5-triazin-2-amine]
Ki (PI3Kα): 327 nM

COc1ccc(Nc2cnccc2-c2nc(C)nc(N)n2)cn1 [Example 115, 4-(3-(6-methoxypyridin-3-ylamino)pyridin-4-yl)-6-methyl-1,3,5-triazin-2-amine]
Ki (PI3Kα): 868 nM

COc1ccc(Nc2nccnc2-c2cc(N)nc(C)n2)cn1 [Example 116, 6-(3-(6-methoxypyridin-3-ylamino)pyrazin-2-yl)-2-methylpyrimidin-4-amine]
Ki (PI3Kα): 59 nM

COc1ccc(Nc2ncncc2-c2nc(C)nc(N)n2)cn1 [Example 117, 4-(4-(6-methoxypyridin-3-ylamino)pyrimidin-5-yl)-6-methyl-1,3,5-triazin-2-amine]
Ki (PI3Kα): 18 nM

COc1ccc(Nc2ccccc2-c2nc(C)nc(N)n2)cn1 [Example 239, 4-(2-(6-Methoxypyridin-3-Ylamino)Phenyl)-6-Methyl-1,3,5-Triazin-2-Amine]
Ki (PI3Kα): 396 nM

COc1ncc(Nc2ncccc2-c2nc(C)nc(N)n2)cc1F [Example 246, 4-(2-(5-Fluoro-6-Methoxypyridin-3-Ylamino)Pyridin-3-yl)-6-Methyl-1,3,5-Triazin-2-Amine]
Ki (PI3Kα): 19 nM

COc1ncc(Nc2ncc(C(C)(C)O)cc2-c2nc(C)nc(N)n2)cc1F [Example 273, 2-(5-(4-Amino-6-Methyl-1,3,5-Triazin-2-yl)-6-(5-Fluoro-6-Methoxypyridin-3-Ylamino)Pyridin-3-yl)Propan-2-ol]
Ki (PI3Kα): 4 nM

COc1ncc(Nc2ncc(C(C)(C)CO)cc2-c2nc(C)nc(N)n2)cc1F [Example 311, 2-(5-(4-amino-6-methyl-1,3,5-triazin-2-yl)-6-(5-fluoro-6-methoxypyridin-3-ylamino)pyridin-3-yl)-2-methylpropan-1-ol]
Ki (PI3Kα): 8 nM

COc1ncc(Nc2ncc(C(C)CO)cc2-c2nc(C)nc(N)n2)cc1F (stereo not drawn) [Example 312, 2-(5-(4-amino-6-methyl-1,3,5-triazin-2-yl)-6-(5-fluoro-6-methoxypyridin-3-ylamino)pyridin-3-yl)propan-1-ol]
Ki (PI3Kα): 2 nM

COc1ncc(Nc2ncc(C(O)C(F)(F)F)cc2-c2nc(C)nc(N)n2)cc1F (stereo not drawn) [Example 314, 1-(5-(4-Amino-6-Methyl-1,3,5-Triazin-2-yl)-6-(5-Fluoro-6-Methoxypyridin-3-Ylamino)Pyridin-3-yl)-2,2,2-Trifluoroethanol]
Ki (PI3Kα): 17 nM

Cc1nc(N)nc(-c2cc(CN3CCOCC3)cnc2Nc2cnc(Cl)c(NS(C)(=O)=O)c2)n1 [Example 332, N-(5-(3-(4-Amino-6-Methyl-1,3,5-Triazin-2-yl)-5-(Morpholinomethyl)Pyridin-2-Ylamino)-2-Chloropyridin-3-yl)Methanesulfonamide]
Ki (PI3Kα): 4 nM

Cc1nc(N)nc(-c2cc(CN3CCOCC3)cnc2Nc2cnc(Cl)c(NS(=O)(=O)N(C)C)c2)n1 [Example 333, N′-(5-((3-(4-Amino-6-Methyl-1,3,5-Triazin-2-yl)-5-(4-Morpholinylmethyl)-2-Pyridinyl)Amino)-2-Chloro-3-Pyridinyl)-N,N-Dimethylsulfamide]
Ki (PI3Kα): 7 nM

Cc1nc(N)nc(-c2cc(C(C)(C)O)cnc2Nc2cncc(F)c2)n1 [Example 352, 2-(5-(4-Amino-6-Methyl-1,3,5-Triazin-2-yl)-6-(5-Fluoropyridin-3-Ylamino)Pyridin-3-yl)Propan-2-ol]
Ki (PI3Kα): 23 nM

COc1cncc(Nc2ncc(C(C)(C)O)cc2-c2nc(C)nc(N)n2)c1 [Example 353, 2-(5-(4-Amino-6-Methyl-1,3,5-Triazin-2-yl)-6-(5-Methoxypyridin-3-Ylamino)Pyridin-3-yl)Propan-2-ol]
Ki (PI3Kα): 15 nM

Cc1nc(N)nc(-c2cc(C(C)(C)O)cnc2Nc2cncc(S(=O)(=O)c3ccccc3)c2)n1 [Example 356, 2-(5-(4-Amino-6-Methyl-1,3,5-Triazin-2-yl)-6-(5-(Phenylsulfonyl)Pyridin-3-Ylamino)Pyridin-3-yl)Propan-2-ol]
Ki (PI3Kα): 58 nM

Cc1nc(N)cc(-c2cc([C@H](C)N3CCOCC3)cnc2Nc2cnc(Cl)c(NS(=O)(=O)N(C)C)c2)n1 [Example 382, (S—)N-(2-Chloro-5-(3-(6-Amino-2-Methylpyrimidin-4-yl)-5-(1-Morpholinoethyl)Pyridin-2-Ylamino)Pyridin-3-yl)-N,N-Dimethylaminosulfamide]
IC50 [1]: 23 nM
